{
  "source": "ChEMBL document CHEMBL1148589",
  "about": "“Rationally designed nucleoside antibiotics that inhibit siderophore biosynthesis of Mycobacterium tuberculosis” (J Med Chem, 2006)",
  "key": {"P388": {"system": "P388", "assay": "Cytotoxicity against P388 murine leukemia cell line at 100-200 uM", "assay_type": "functional", "details": "Mus musculus, read-out: ED50 (the source's name)"}, "[1]": {"system": "Mycobacterium tuberculosis", "assay": "Inhibitory activity against Mycobacterium tuberculosis H37Rv", "assay_type": "functional"}, "[2]": {"assay": "Dissociation constant, pKa of the compound", "assay_type": "physicochemical"}, "[3]": {"assay": "Therapeutic index (ED50/MIC50)", "assay_type": "cell-based", "details": "mouse, P388 cells; read-out: Ratio ED50/MIC50"}},
  "data": [
    {"smiles": "Nc1ncnc2c1ncn2[C@@H]1O[C@H](Cn2cc(C(=O)c3ccccc3O)nn2)[C@@H](O)[C@H]1O", "values": [
      {"measurement": "EC50", "setting": "P388", "result": "> 100", "unit": "µg/mL"},
      {"measurement": "MIC50", "setting": "[1]", "result": "> 100", "unit": "µM"},
      {"measurement": "MIC99", "setting": "[1]", "result": "> 100", "unit": "µM"}
    ]},
    {"smiles": "Nc1ncnc2c1ncn2[C@@H]1O[C@H](COP(=O)(O)CC(=O)c2ccccc2O)[C@@H](O)[C@H]1O", "values": [
      {"measurement": "EC50", "setting": "P388", "result": "> 100", "unit": "µg/mL"},
      {"measurement": "pKa", "setting": "[2]", "result": 2},
      {"measurement": "MIC50", "setting": "[1]", "result": "> 100", "unit": "µM"},
      {"measurement": "MIC99", "setting": "[1]", "result": "> 100", "unit": "µM"}
    ]},
    {"smiles": "Nc1ncnc2c1ncn2[C@@H]1O[C@H](COS(=O)(=O)NC(=O)c2ccccc2O)[C@@H](O)[C@H]1O", "values": [
      {"measurement": "EC50", "setting": "P388", "result": "> 100", "unit": "µg/mL"},
      {"measurement": "MIC50", "setting": "[1]", "result": 0.091, "unit": "µM"},
      {"measurement": "MIC99", "setting": "[1]", "result": 0.29, "unit": "µM"}
    ]},
    {"smiles": "Nc1ncnc2c1ncn2[C@@H]1O[C@H](COS(=O)(=O)NCc2ccccc2O)[C@@H](O)[C@H]1O", "values": [
      {"measurement": "EC50", "setting": "P388", "result": "> 100", "unit": "µg/mL"},
      {"measurement": "pKa", "setting": "[2]", "result": 8.5},
      {"measurement": "MIC50", "setting": "[1]", "result": "> 100", "unit": "µM"},
      {"measurement": "MIC99", "setting": "[1]", "result": "> 100", "unit": "µM"}
    ]},
    {"smiles": "Nc1ncnc2c1ncn2[C@@H]1O[C@H](CNS(=O)(=O)NC(=O)c2ccccc2O)[C@@H](O)[C@H]1O", "values": [
      {"measurement": "EC50", "setting": "P388", "result": "> 100", "unit": "µg/mL"},
      {"measurement": "MIC50", "setting": "[1]", "result": 0.077, "unit": "µM"},
      {"measurement": "MIC99", "setting": "[1]", "result": 0.19, "unit": "µM"},
      {"measurement": "selectivity ratio", "setting": "[3]", "result": "> 900"}
    ]},
    {"smiles": "Nc1ccccc1C(=O)NS(=O)(=O)OC[C@H]1O[C@@H](n2cnc3c(N)ncnc32)[C@H](O)[C@@H]1O", "values": [
      {"measurement": "EC50", "setting": "P388", "result": "> 100", "unit": "µg/mL"},
      {"measurement": "MIC50", "setting": "[1]", "result": 30.9, "unit": "µM"},
      {"measurement": "MIC99", "setting": "[1]", "result": "> 100", "unit": "µM"}
    ]},
    {"smiles": "Nc1ncnc2c1ncn2[C@@H]1O[C@H](COS(=O)(=O)NC(=O)c2ccccc2)[C@@H](O)[C@H]1O", "values": [
      {"measurement": "EC50", "setting": "P388", "result": "> 100", "unit": "µg/mL"},
      {"measurement": "pKa", "setting": "[2]", "result": 2.8},
      {"measurement": "MIC50", "setting": "[1]", "result": 4.5, "unit": "µM"},
      {"measurement": "MIC99", "setting": "[1]", "result": 12.5, "unit": "µM"}
    ]},
    {"smiles": "NNC(=O)c1ccncc1", "note": "[ISONIAZID]", "values": [
      {"measurement": "MIC99", "setting": "[1]", "result": 0.18, "unit": "µM"}
    ]}
  ]
}
